According to patent publication US9814727B2, “Piperazine phenothiazine derivatives for treating spasticity” (UNIVERSITE D'AIX-MARSEILLE, priority 2014, dated 2017):

What was measured:
[1] = tested on: KCC2; test: Western blot of KCC2 in total cell lysate of HEK KCC2 cells; type: cell-based; details: 10 μM, 30 min of cell treatment, HEK KCC2 whole cell lysate
Description: Wild-type or KCC2-expressing Human Embryonic Kidney (HEK) 293 cells (provided by Prof. Eric Delpire Department of Anesthesiology, Vanderbilt University Medical Center, Nashville, Tenn.) were grown up to 80-90% confluence in DMEM/Ham's F-12 (1:1) (Life technologies, Carlsbad, Calif., USA) supplemented with 10% FBS (Life technologies), 50 units/mL penicillin, and 50 µg/mL streptomycin (Life technologies). KCC2-expressing clones were under puromycin selection (20 μg/ml, Life technologies).
Wild-type and KCC2-expressing HEK293 cells or NSC-34 were harvested and homogenised in lysis buffer (PBS containing 1% Igepal CA-630, 0.1% SDS, 10 mM sodium pyrophosphate, 10 mM NaF, 10 mM NaVO4, 10 mM iodoacetamide and cocktail protease inhibitors and centrifugated at 18000 g for 30 minutes at 4° C. Protein concentration in supernatants was determined using DC protein assay (Bio-rad). Same amounts of total proteins were separated in 6% or 7% SDS PAGE and transferred onto PVDF membrane. Once blocked in Tris Buffer Saline 0.05% Tween 5% non-fat dry milk, membranes were probes over night at 4° C. with KCC2 antibody (1/1000 dilution, Merck-Millipore, Billerica, Mass., USA), or anti-phospho-serine940 KCC2 (1/1000 dilution, PhosphoSolutions) or anti-Actin antibody (1/500 dilution, Sigma Aldrich). […] Signal intensity was measured with the image analysis software Image lab (Bio-Rad, Hercules, Calif., USA). […]

[2] = tested on: lumbar motoneurons (MNs); test: Intracellular recordings of lumbar motoneurons in the in vitro spinal cord preparation (EIPSP); type: cell-based, rat; details: 10 μM
From the text: Spinal cords isolated from neonatal rats on post natal day 4 or 5 were dissected together with spinal roots. Briefly, after decapitation and evisceration, the spinal cord was exposed by dorsal laminectomy and acute removal of the dura in a cold artificial cerebrospinal fluid (ACSF; containing (in mM): 130 NaCl, 4 KCl, 3.75 CaCl2, 1.3 MgSO4, 0.58 NaH2PO4, 25 NaHCO3 and 10 glucose (all compounds were from Sigma); oxygenated with 95% O2/5% CO2, pH=7.4). The cord, from sacral segments up to T8, was then removed from the vertebral column together with peripheral roots. The preparation was then transferred to the recording chamber where it was pinned down, ventral side up, in sylgard (Dow-Corning; USA)-covered recording chamber, and continuously perfused with the ACSF solution. After removing the pia, we recorded lumbar motoneurons (MNs) intracellularly using glass microelectrodes filled with 2 M K-acetate (70 to 100-MΩ resistance). We recorded intracellular potentials in the discontinuous current-clamp (DCC) mode (Axoclamp 2B amplifier; Digidata 1200 interface; pClamp9 software; Axon Instruments, Sunnyvale, Calif., USA). We used glass suction electrode to stimulate the ipsilateral ventral funiculus 2 to 3 segments rostral to the recorded one. Such stimulations induced GABAA- and Gly-mediated Inhibitory Postsynaptic Potentials (IPSPs) in the presence of DL-2-amino-5-phosphonovaleric acid (DL-APV, 50 μM) and 6-cyano-7-nitroquinoxaline-2,3-dione (CNQX, 10 μM) (Bos et al., 2013; Boulenguez et al., 2010; Jean-Xavier et al., 2006). We recorded IPSPs at various holding potentials (500-ms-long current pulses) and collected at least 20 values for each MN. We measured and plotted amplitudes of IPSPs against holding potentials and obtained EIPSP from the regression line.
In the in vitro spinal cord preparation, isolated from neonatal rat, a way to investigate KCC2 function is provided by recording motoneurons (MNs) intracellularly and measuring the chloride equilibrium potential that is given by the reversal potential of inhibitory synaptic potentials (EIPSP). The more hyperpolarized the value of EIPSP, the lower the intracellular concentration of chloride ions and, as a result, the stronger the KCC2 function. The inventors have examined the effect of 10 μM Prochlorperazine (2) on EIPSP of lumbar MNs in P4-6 rats (FIG. 3). It hyperpolarized EIPSP within 5-10 min and measurements were done 20-25 min after the onset of Prochlorperazine (2) application.

[3] = tested on: reciprocal inhibition of lumbar MNs; test: In vitro extracellular recordings and evaluation of reciprocal inhibition after neonatal spinal cord transection; parameters: species or system rat
From the text: Rats were deeply anesthetized by hypothermia at birth. A dorsal midline skin incision was made over the thoracic vertebra and the overlying fascia and muscles were retracted to expose the dorsal surface of the vertebrae. After a partial laminectomy, the spinal cord was completely transected at the T8 thoracic level with scissors. The lesion cavity was then filled with sterile absorbable local hemostat Surgicoll (Medical Biomaterial Products; Neustadt-Glewe, Germany). The skin incision was closed with sutures (PDSII 6.0, Ethicon; Johnson and Johnson; Brussels, Belgium) and covered by Steri-Strips (3M Health Care; St. Paul, Minn.). The whole surgical procedure took less tan 10 min after anesthesia. Sham-operated rats were treated in the same way except […] the spinal cord transection. Following surgery, the neonates recovered 45 min in a warm environment maintaining the temperature at 35±1° C. Wounds were then cleaned and rats were kept in a warm environment for 40 min before returning to the nest.
Spinal cords isolated from neonatal rats were prepared as described in section 1.2 until “recording”.
Extracellular electrophysiological signals of lumbar VRs and DRs responses were recorded by contact stainless steel electrodes insulated from the bath with vaseline. […]

CN1CCN(CCCN2c3ccccc3Sc3ccc(Cl)cc32)CC1 [compound 2, 2-chloro-10-[3-(4-methyl-1-piperazinyl)propyl]-10H-phenothiazine]
phosphorylated KCC2 on serine 940 [1]: increased | total KCC2 protein level (monomers+oligomers) [1]: increased | change of driving force (EIPSP-Vrest) ([2]; 20-25 min, n=6): −3.5 mV | effect on resting membrane potential (Vrest) ([2]; 20-25 min, n=6): no significant impact | hyperpolarizing shift of EIPSP compared to control ([2]; 20-25 min after onset of application, P4-6 rats, n=6): −3.3 mV | time to hyperpolarization of EIPSP ([2]; P4-6 rats): 5 to 10 min | strength of reciprocal inhibition relative to intact spinal cord ([3]; 200 μM (so in the source), n=6): inhibition comparable to an intact spinal cord | strength of reciprocal inhibition ([3]; 5, 10 and 20 μM, 20 min after onset of application, P5-7 rats transected at birth): increased the strength of reciprocal inhibition in a dose-dependent manner
